Reference: patent US10501473B2, “Fused heterocyclic ring compounds and method of treating retinal disease using same” (THE INDUSTRY & ACADEMIC COOPERATION IN CHUNGNAM NATIONAL …, priority 2014, dated 2019)

Key:
[1] = tested on: RGC-5 (rat ganglion cell); assay: Retinal nerve protection under oxygen-glucose deprivation (OGD), LDH assay; assay type: cell-based; conditions: RGC-5, OGD 15 hours, compound 20 μM, DMSO control = 100%
Protocol: The following experiment was performed to evaluate the protective effect of the compounds of examples of the invention on the retinal nerve under oxygen-glucose deprivation condition.
The retinal ganglion cell line RGC-5 (rat ganglion cell) was cultured in DMEM (Dulbecco's modified Eagle's medium) supplemented with 10% FBS (fetal bovine serum) and 1% penicillin/streptomycin. The cells were distributed in a 96-well plate at the density of 8×10^3 cells/well, followed by culture in a 37° C., CO2 incubator for 12 hours. The cells were washed with PBS once and the medium was replaced with glucose free DMEM. The cells were treated with either DMSO (0.1%) alone (control) or with the compounds of examples (20 μM) shown in Table 3, followed by culture in an anaerobic incubator (10% H2, 5% CO2, 85% N2, 37° C., chamber (ThermoForma, USA)) for 15 hours to induce cell death.
The level of cell death was measured by LDH (lactate dehydrogenase, Roche) assay. The LDH assay is a method for measuring the activity of LDH released from the damaged cells into the culture medium. NAD^+ was reduced to NADH and H^+ by LDH, and the bond of tetrazolium salt INT ring was cleaved by diaphorase to form formazan. Absorbance of the formazan was measured at 490 nm by using Victor 3 (PerkinElmer). The absorbance reflects the amount of dead cells.
The level of the control LDH under oxygen-glucose deprivation condition was regarded as 100%, and the level of LDH in the cell group cultured in normal medium (10% FBS, DMEM) for the same time was regarded as 0%. Based on that, the levels of LDH of the cell groups treated with the compounds of the invention under oxygen-glucose deprivation condition were converted into the relative ratio of cell death. The compounds of examples of the invention were treated to wells, each compound for three wells, and then each experiment was performed in triplicate.

[2] = tested on: RGC-5 (rat ganglion cell-5); assay: Retinal neuron protection under necroptosis inducing (TCZ; TNFα+cycloheximide+zVAD) condition, LDH assay; assay type: cell-based; conditions: RGC-5, TCZ 15 hours, compound 20 μM, DMSO control = 100%
Protocol: The following experiment was performed to evaluate the retinal neuron protection effect of the compounds of the invention under necroptosis inducing condition.
The retinal ganglion cell line RGC-5 (rat ganglion cell-5) was cultured in DMEM (Dulbecco's modified Eagle's medium) supplemented with 10% FBS (fetal bovine serum) and 1% penicillin/streptomycin. The cells were distributed in a 96-well plate at the density of 8×10^3 cells/well, followed by culture in a 37° C., CO2 incubator for 12 hours. The medium supplemented with TNFα (10 ng/ml), cycloheximide (10 μg/ml), and zVAD (10 μM) (TCZ) was treated with DMSO (0.1%) alone (control) or with the compounds of the invention (20 μM), followed by additional culture in a 37° C., CO2 incubator for 15 hours to induce cell death.
The level of cell death was measured by LDH (lactate dehydrogenase, Roche) assay. The level of the control LDH under TCZ condition was regarded as 100%, and the level of LDH in the cell group cultured in normal medium (10% FBS, DMEM) for the same time was used for the measurement of the relative rate of cell death. The compounds of examples of the invention were treated to wells, each compound for three wells, and then each experiment was performed in triplicate.

[3] = target: RIPK1 (receptor-interacting serine/threonine-protein kinase 1) (Homo sapiens (Human), UniProt Q13546); assay: RIPK1 inhibitory activity, autophosphorylation of immuno-precipitated RIPK1 with [32P]γ-ATP; assay type: biochemical; conditions: for activity at 100 µM: compound 100 μM, remaining RIPK1 phosphorylation; for inhibition at 100 µM: Table 2, 100 μM
Sequence of RIPK1 (receptor-interacting serine/threonine-protein kinase 1) (Q13546 whole entry, species assumed): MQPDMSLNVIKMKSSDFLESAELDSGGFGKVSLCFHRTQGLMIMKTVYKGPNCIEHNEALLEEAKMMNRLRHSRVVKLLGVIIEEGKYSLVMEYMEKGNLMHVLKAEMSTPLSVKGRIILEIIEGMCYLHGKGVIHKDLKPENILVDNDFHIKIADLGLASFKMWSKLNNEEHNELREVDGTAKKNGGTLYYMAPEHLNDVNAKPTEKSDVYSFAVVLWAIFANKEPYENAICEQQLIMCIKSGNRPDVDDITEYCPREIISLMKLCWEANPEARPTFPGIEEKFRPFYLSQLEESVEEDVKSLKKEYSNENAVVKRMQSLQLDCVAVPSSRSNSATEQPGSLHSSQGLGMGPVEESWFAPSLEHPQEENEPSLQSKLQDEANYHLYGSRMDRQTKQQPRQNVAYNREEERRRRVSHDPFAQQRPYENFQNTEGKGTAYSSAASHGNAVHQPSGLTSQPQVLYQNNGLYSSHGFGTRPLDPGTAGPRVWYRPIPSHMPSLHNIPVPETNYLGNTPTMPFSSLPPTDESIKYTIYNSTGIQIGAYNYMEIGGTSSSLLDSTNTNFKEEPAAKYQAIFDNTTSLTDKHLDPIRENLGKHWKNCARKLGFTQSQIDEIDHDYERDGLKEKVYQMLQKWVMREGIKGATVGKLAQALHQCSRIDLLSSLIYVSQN
Protocol: The following experiment was performed to evaluate RIPK1 (receptor-interacting serine/threonine-protein kinase 1) inhibitory activity of the compounds of examples of the invention.
RIPK1 enzyme immuno-precipitated in HEK293 (Human Embryonic Kidney 293) cell lysate was used as kinase. The experiment was performed according to the method described in Cell. 12; 137(6):1112-23(2009). RIPK1 protein was over-expressed in HEK293 cell line, to which lysis buffer (50 mM Tris-Cl [pH 8.0], 150 mM NaCl, 1 mM EDTA, 1% NP-40, 0.4 mM phenylmethylsulfonyl fluoride (PMSF)) was added for cell lysis. Centrifugation was performed at 13,000 rpm for 10 minutes to separate the supernatant. RIPK1 monoclonal antibody (610459, BD Bioscience) and A/G agarose beads (sc-2003, Santa Cruz Biotechnology) were added thereto, followed by immuno-precipitation in a 4° C. rotator for 12 hours.
The immune complex was washed with lysis buffer twice and then washed with kinase assay buffer (20 mM HEPES [pH7.6], 2 mM DTT, 1 mM NaF, 1 mM Na3Vo4, 20 mM β-glycerophosphate, 20 mM PNPP, 20 mM MgCl2, 20 mM MnCl2, 1 mM Benzamidie, and 1 mM EDTA) lastly. Kinase assay buffer and the compound were added to the RIPK1 immuno-precipitate, followed by reaction in a 24° C. constant-temperature water bath for 15 minutes. Additional reaction was induced for 30 minutes at 30° C. after 100 μM of ATP and 10 μCi[^32P] γ-ATP were added thereto. The reaction mixture was washed with kinase assay buffer once, to which protein loading buffer was added, followed by heating at 100° C. for 3 minutes. The reaction mixture was then loaded on 8% SDS-PAGE gel. Radioactive image of the phosphorylated RIPK1 was detected with FLA-7000 (GE healthcare). The image Quant TL program was used for the quantification.

Compound	Death of retinal nerve cell (%) [1]	Death of retinal nerve cell (%) [2]	activity at 100 µM [3]	inhibition at 100 µM [3]
Nc1ccc2sc(C(=O)N3CCOCC3)cc2c1 [Example 28, (5-aminobenzo[b]thiophene-2-yl)(morpholino)methanone]	60.0 ± 8.2%	84.3 ± 1.7%	73 ± 38.2%	–
O=C(c1cc2cc(Br)ccc2o1)N1CCOCC1 [Example 16, (5-bromobenzofuran-2-yl)(morpholino)methanone]	19.3 ± 1.4%	59.4 ± 11.3%	88 ± 24.7%	–
O=C(c1cc2cccc(-c3ccc(F)cc3)c2s1)N1CCOCC1 [Example 65, (7-(4-fluorophenyl)benzo[b]thiophene-2-yl)(morpholino)methanone]	79.6 ± 5.5%	77.8 ± 9.6%	67%	–
O=C(c1cc2cc(Cl)ccc2[nH]1)N1CCOCC1 [Example 12, (5-chloro-1H-indole-2-yl)(morpholino)methanone]	35.7 ± 0.1%	50.5 ± 7.4%	60%	–
COc1ccc2cc(C(=O)N3CCOCC3)sc2c1 [Example 19, (6-methoxybenzo[b]thiophene-2-yl)(morpholino)methanone]	70.9 ± 9.7%	71.6 ± 9.1%	81 ± 26.9%	–
Cn1c(C(=O)N2CCOCC2)cc2ccccc21 [Example 25, (1-methyl-1H-indole-2-yl)(morpholino)methanone]	37.0 ± 1.2%	64.8 ± 11.2%	43%	≥ 50%
O=C(c1cc2ccccc2o1)N1CCOCC1 [Example 15, benzofuran-2-yl(morpholino)methanone]	42.7 ± 2.0%	72.6 ± 6.8%	85.6 ± 26.7%	–
Fc1ccc(-c2cccc3sc(CN4CCOCC4)cc23)cc1 [Example 7, 4-((4-(4-fluorophenyl)benzo[b]thiophene-2-yl)methyl)morpholine]	90.0 ± 3.3%	63.2 ± 3.9%	87.1 ± 17.7%	–
O=C(c1cc2c(Br)cncc2s1)N1CCOCC1 [Example 3, (4-bromothieno[2,3-c]pyridine-2-yl)(morpholino)methanone]	–	79.6 ± 3.2%	52 ± 2.8%	–
O=C(c1cc2c(Br)cnc(Cl)c2s1)N1CCOCC1 [Example 1, (4-bromo-7-chlorothieno[2,3-c]pyridine-2-yl)(morpholino)methanone]	–	79.3 ± 3.2%	52.5 ± 7.8%	–
Cc1ccc2[nH]c(C(=O)N3CCOCC3)cc2c1 [Example 21, (5-methyl-1H-indole-2-yl)(morpholino)methanone]	64.7 ± 7.1%	89.9 ± 19.4%	81 ± 17%	–
Cl.O=C(c1cc2c(-c3ccc(F)cc3)cccc2s1)N1CCNCC1 [Example 38, (4-(4-fluorophenyl)benzo[b]thiophene-2-yl)(piperazine-1-yl)methanone hydrochloride]	59.9 ± 0.2%	72.4 ± 7.5%	62 ± 12%	–
COc1ccc2[nH]c(C(=O)N3CCOCC3)nc2c1 [Example 24, (5-methoxy-1H-benzo[d]imidazole-2-yl)(morpholino)methanone]	76.4 ± 13.4%	66.6 ± 9.9%	52 ± 17.1%	–
O=C(c1cc2c(-c3ccc(F)cc3)cccc2s1)N1CCCCC1 [Example 47, (4-(4-fluorophenyl)benzo[b]thiophene-2-yl) (piperidine-1-yl)methanone]	59.1 ± 1.6%	89.1 ± 1.2%	20 ± 14.1%	–
Cc1ccc2cc(C(=O)N3CCOCC3)oc2c1 [Example 27, (6-methylbenzofuran-2-yl)(morpholino)methanone]	53.7 ± 9.1%	86.1 ± 1.3%	86 ± 17%	–
O=C(c1cc2c(-c3ccc(F)cc3)cnc(Cl)c2s1)N1CCOCC1 [Example 5, (7-chloro-4-(4-fluorophenyl)thieno[2,3-c]pyridine-2-yl)(morpholino)methanone]	62.1 ± 3.7%	57.6 ± 19.2%	85.1 ± 24.7%	–
O=C(c1cc2cccc(Br)c2s1)N1CCOCC1 [Example 29, (7-bromobenzo[b]thiophene-2-yl)(morpholino)methanone]	51.4 ± 10.9%	78.4 ± 6.5%	82.5 ± 24.7%	–
Cc1ccc2[nH]c(C(=O)N3CCOCC3)nc2c1 [Example 13, (5-methyl-1H-benzo[d]imidazole-2-yl)(morpholino)methanone]	69.6 ± 2.0%	71.2 ± 7.0%	83.4 ± 16.1%	–
O=C(c1nc2cc(Br)ccc2[nH]1)N1CCOCC1 [Example 14, (5-bromo-1H-benzo[d]imidazole-2-yl)(morpholino)methanone]	82.1 ± 11.2%	81.1 ± 15.2%	62 ± 6.2%	–
O=C(c1nc2ccccc2[nH]1)N1CCOCC1 [Example 23, (1H-benzo[d]imidazole-2-yl)(morpholino)methanone]	45.6 ± 3.6%	69.2 ± 4.2%	69 ± 24.5%	–
COc1ccc2[nH]c(C(=O)N3CCOCC3)cc2c1 [Example 22, (5-methoxy-1H-indole-2-yl)(morpholino)methanone]	78.6 ± 13.8%	69.5 ± 7.4%	43.5 ± 10.6%	≥ 50%
COc1ccc2oc(C(=O)N3CCOCC3)cc2c1 [Example 26, (5-methoxybenzofuran-2-yl)(morpholino)methanone]	48.6 ± 6.5%	75.9 ± 15.1%	81.4 ± 29.3%	–
Cc1ccc2cc(C(=O)N3CCOCC3)sc2c1C [Example 18, (6,7-dimethylbenzo[b]thiophene-2-yl)(morpholino)methanone]	37.0 ± 1.7%	74.6 ± 8.2%	76.5 ± 12%	–
